Values of other authors, collected in PMC3237771 (Biomacromolecules, 2011).

Conditions: aqueous buffer; no reference given

## N=c1c[n+](N2CCOCC2)[n-]o1 [SIN-1, 3-morpholinosydnonimine]
  Half-life in aqueous environments: < 10 h
